Experimental data reported in paper PMC10534724, “Interaction of ALK Inhibitors with Polyspecific Organic Cation Transporters and the Impact of Substrate-Dependent Inhibition on the Prediction of Drug–Drug Interactions” (Pharmaceutics, 2023).
Where two headings read alike, the source gives them in different places. Values belong to the molecule of their own block, whether it stands above or below them.

Tests used:
[1] = molecular target: T1, hOCT2 (Homo sapiens, UniProt O15244); details: cited from earlier work
T1 sequence (O15244 1-555): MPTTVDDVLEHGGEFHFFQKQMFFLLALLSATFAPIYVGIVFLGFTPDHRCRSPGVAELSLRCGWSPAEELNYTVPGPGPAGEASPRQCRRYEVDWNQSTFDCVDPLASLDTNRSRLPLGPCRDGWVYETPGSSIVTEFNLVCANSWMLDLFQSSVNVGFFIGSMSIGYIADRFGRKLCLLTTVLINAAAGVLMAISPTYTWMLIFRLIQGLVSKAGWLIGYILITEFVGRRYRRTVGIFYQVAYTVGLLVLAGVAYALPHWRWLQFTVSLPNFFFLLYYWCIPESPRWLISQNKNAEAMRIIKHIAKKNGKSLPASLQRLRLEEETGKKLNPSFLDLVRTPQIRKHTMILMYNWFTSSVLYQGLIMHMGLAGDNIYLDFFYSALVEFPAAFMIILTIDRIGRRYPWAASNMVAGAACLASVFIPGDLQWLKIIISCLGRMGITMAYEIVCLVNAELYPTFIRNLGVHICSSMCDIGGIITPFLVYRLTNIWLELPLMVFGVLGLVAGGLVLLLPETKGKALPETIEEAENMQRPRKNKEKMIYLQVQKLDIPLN

[2] = molecular target: T2, hOCT1 (Homo sapiens, UniProt O15245); set-up: method as in PMID 32487736; details: substrate mIBG; HEK293; read-out: IC50, hOCT1-mediated mIBG uptake; cited from earlier work
T2 construct: expressed in transfected cells
T2 sequence (O15245 1-554): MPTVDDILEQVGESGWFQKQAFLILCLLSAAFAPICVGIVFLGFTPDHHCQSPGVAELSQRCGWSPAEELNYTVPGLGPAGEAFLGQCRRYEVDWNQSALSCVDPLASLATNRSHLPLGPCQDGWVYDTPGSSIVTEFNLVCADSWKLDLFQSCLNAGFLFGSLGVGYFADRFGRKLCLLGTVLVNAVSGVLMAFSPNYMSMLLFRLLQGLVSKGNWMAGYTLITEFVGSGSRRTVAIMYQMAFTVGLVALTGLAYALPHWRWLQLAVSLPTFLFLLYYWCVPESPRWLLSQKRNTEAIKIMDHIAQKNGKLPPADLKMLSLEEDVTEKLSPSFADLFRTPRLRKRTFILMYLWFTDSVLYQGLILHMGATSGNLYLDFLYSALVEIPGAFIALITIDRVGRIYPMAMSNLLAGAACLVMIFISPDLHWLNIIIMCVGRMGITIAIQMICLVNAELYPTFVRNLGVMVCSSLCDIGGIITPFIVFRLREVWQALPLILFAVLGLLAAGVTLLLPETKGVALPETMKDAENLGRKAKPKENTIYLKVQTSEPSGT

[3] = molecular target: T1, hOCT2; assay: Inhibition of hOCT2-mediated substrate uptake in transfected HEK293 cells; assay type: in vitro ADME; set-up: expressed in transfected cells; details: for In vivo DDI study recommendation, hOCT2: FDA-recommended criteria
[4] = molecular target: T3, hMATE2-K (Homo sapiens, UniProt Q86VL8); assay: Inhibition of hMATE2-K-mediated substrate uptake in transfected HEK293 cells (pH 8.0); assay type: in vitro ADME; details: for In vivo DDI study recommendation, hMATE2-K: FDA-recommended criteria
T3 construct: expressed in transfected cells

[5] = molecular target: T2, hOCT1; assay: Inhibition of hOCT1-mediated substrate uptake in transfected HEK293 cells; assay type: in vitro ADME; details: for In vivo DDI study recommendation, hOCT1: FDA-recommended criteria
[6] = molecular target: T4, hOCT3 (Homo sapiens, UniProt O75751); assay: Inhibition of hOCT3-mediated substrate uptake in transfected HEK293 cells; assay type: in vitro ADME; details: for In vivo DDI study recommendation, hOCT3: FDA-recommended criteria
T4 construct: expressed in transfected cells
T4 sequence (O75751 1-556): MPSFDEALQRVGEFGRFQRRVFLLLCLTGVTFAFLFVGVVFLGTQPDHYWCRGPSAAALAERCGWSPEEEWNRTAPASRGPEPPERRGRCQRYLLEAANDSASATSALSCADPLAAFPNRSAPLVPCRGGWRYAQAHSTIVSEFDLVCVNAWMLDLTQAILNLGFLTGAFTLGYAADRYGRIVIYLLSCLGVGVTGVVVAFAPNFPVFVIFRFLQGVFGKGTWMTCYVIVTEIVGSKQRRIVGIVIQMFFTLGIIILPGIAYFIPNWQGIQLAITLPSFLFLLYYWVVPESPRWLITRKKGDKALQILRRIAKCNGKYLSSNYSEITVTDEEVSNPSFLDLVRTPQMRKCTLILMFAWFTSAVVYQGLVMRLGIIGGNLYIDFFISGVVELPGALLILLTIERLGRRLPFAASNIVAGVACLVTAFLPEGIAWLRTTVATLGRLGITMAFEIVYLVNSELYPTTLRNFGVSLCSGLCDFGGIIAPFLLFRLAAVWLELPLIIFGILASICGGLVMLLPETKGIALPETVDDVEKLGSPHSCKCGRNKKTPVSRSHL

[7] = molecular target: T5, hMATE1 (Homo sapiens, UniProt Q96FL8); assay: Inhibition of hMATE1-mediated substrate uptake in transfected HEK293 cells (pH 8.0); assay type: in vitro ADME; details: FDA-recommended criteria
T5 construct: expressed in transfected cells
T5 sequence (Q96FL8 1-570): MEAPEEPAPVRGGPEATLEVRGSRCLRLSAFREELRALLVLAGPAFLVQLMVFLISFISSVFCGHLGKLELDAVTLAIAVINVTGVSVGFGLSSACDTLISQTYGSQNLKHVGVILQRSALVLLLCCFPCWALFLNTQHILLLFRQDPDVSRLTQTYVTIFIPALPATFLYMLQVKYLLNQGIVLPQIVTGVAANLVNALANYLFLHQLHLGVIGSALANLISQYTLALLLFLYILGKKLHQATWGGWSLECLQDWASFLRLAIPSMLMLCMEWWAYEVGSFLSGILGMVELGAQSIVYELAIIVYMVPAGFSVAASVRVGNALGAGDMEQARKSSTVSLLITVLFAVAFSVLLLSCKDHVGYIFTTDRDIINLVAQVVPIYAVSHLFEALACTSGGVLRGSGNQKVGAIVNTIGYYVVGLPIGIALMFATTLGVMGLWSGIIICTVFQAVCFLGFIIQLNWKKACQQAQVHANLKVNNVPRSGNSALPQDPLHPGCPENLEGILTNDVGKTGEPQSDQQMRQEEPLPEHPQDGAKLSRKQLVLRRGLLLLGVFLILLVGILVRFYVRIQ

T3 sequence (Q86VL8 1-566 isoform Q86VL8-3): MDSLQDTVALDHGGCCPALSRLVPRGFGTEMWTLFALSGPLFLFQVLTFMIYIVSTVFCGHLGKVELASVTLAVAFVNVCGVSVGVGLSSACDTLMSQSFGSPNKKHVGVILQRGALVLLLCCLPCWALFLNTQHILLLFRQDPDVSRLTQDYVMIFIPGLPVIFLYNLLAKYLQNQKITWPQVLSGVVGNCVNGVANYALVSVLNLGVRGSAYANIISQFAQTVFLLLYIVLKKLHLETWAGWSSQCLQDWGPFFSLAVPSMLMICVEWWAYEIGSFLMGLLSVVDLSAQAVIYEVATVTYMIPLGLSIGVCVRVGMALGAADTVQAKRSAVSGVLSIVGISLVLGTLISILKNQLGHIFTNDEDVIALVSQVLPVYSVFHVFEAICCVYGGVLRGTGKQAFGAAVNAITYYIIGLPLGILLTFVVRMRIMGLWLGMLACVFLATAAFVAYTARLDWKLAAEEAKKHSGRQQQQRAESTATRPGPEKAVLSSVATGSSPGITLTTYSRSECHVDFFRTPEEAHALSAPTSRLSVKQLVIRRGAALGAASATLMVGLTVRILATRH

SMILES: CN/C(=N/CCSCc1nc[nH]c1C)NC#N [cimetidine]
higher potency on OCT2 with atenolol as substrate compared with metformin [1]: 10 fold

substrate dependency, hOCT2: more potent with metformin than with MPP+ ([3]; IC50 ratio MPP+/metformin): ~16 fold | substrate dependency, hOCT2: more potent with metformin than with mIBG ([3]; IC50 ratio mIBG/metformin): approximately 2 fold | In vivo DDI study recommendation, hOCT2 ([3]; substrate MPP+): No | In vivo DDI study recommendation, hOCT2 ([3]; substrate mIBG): No | In vivo DDI study recommendation, hOCT2 ([3]; substrate metformin): No | substrate dependency, hMATE2-K: more potent with metformin than with MPP+ ([4]; IC50 ratio MPP+/metformin): ~12 fold | substrate dependency, hMATE2-K: more potent with metformin than with mIBG ([4]; IC50 ratio mIBG/metformin): approximately 5 fold | In vivo DDI study recommendation, hMATE2-K ([4]; substrate MPP+): No | In vivo DDI study recommendation, hMATE2-K ([4]; substrate mIBG): No | In vivo DDI study recommendation, hMATE2-K ([4]; substrate metformin): No | substrate dependency, hOCT1: more potent with metformin than with MPP+ ([5]; IC50 ratio MPP+/metformin): ~21 fold | substrate dependency, hOCT1: more potent with metformin than with mIBG ([5]; IC50 ratio mIBG/metformin): approximately 8 fold | IC50 ([5]; substrate 8.9 µM [14C]metformin, HEK293, 2 min, 37 °C, mean ± SD, read-out: IC50, hOCT1-mediated metformin uptake): 4.98 ± 0.15 µM | In vivo DDI study recommendation, hOCT1 ([5]; substrate MPP+): No | In vivo DDI study recommendation, hOCT1 ([5]; substrate mIBG): No | In vivo DDI study recommendation, hOCT1 ([5]; substrate metformin): No | substrate dependency, hOCT3: differences in IC50 values across substrates ([6]; metformin, mIBG, MPP+): ≤ 5 fold | In vivo DDI study recommendation, hOCT3 ([6]; substrate MPP+): No | In vivo DDI study recommendation, hOCT3 ([6]; substrate mIBG): No | In vivo DDI study recommendation, hOCT3 ([6]; substrate metformin): No | In vivo DDI study recommendation, hMATE1 ([7]; substrate MPP+): No | In vivo DDI study recommendation, hMATE1 ([7]; substrate mIBG): No | In vivo DDI study recommendation, hMATE1 ([7]; substrate metformin): No
SMILES: C[C@@H](Oc1cc(-c2cnn(C3CCNCC3)c2)cnc1N)c1c(Cl)ccc(F)c1Cl [Crizotinib]
IC50 [2]: 40.3 ± 5.5 µM
